From PubChem BioAssay AID2060343 (Molecular Pharmacology Branch, DTP, NCI, 2025)

Test system: 138582-337-R-J1-PDC spheroids with HUVEC/MSC, viability
Assay: Anticancer human tumor 138582-337-R-J1-PDC patient-derived Merkel cell tumor cell line growth inhibition [IpAb]
Details: for IC50: curve of first compound; for viability, T/C: stronger effect = lower value
Description: Combinatorial screen of targeted agents with ipatasertib and abemaciclib in multi-cell type tumor spheroids
A high-throughput screen of multi-cell type tumor spheroids was designed to identify active combinations of targeted small molecules and ipatasertib or abemaciclib. Complex spheroids include a stromal component modeled by human endothelial cells (HUVEC) and fibroblasts modeled by human mesenchymal stem cells (MSCs). The concentration ranges selected for each drug and investigational agent were based upon clinically achievable concentrations if the clinical Cmax of the agent was known.
Compounds. The drugs and investigational agents: ipatasertib (NSC767898), abemaciclib(NSC768073), selumetinib (NSC741078), trametinib (758246), adavosertib (NSC754352), everolimus (NSC733504), sapanisertib (NSC764658), vemurafenib (NSC761431), venetoclax (NSC766270), copanlisib (NSC809693), apelisib (NSC765974), palbociblib (NSC758247), vemurafenib (NSC761431), dabrafenib (NSC764134), ravoxertinib (NSC781343), BMS-387032 (NSC767048), sotorasib (NSC818433), talazoparib (NSC767125) and afursertib (NSC778305), were obtained from the National Cancer Institute (NCI) Developmental Therapeutics Program Chemical Repository. The FDA-approved anticancer drug set is available from the NCI Developmental Therapeutics Program. […] The stock solutions were prepared in dimethyl sulfoxide (DMSO, Sigma-Aldrich, St. Louis, MO, cat. D2650) at 800-fold the tested concentration and stored at -70 degrees C prior to their use. All drugs and investigational agents were tested over a range starting from a high concentration at or near the clinical Cmax and decreasing in half-log increments. If the clinical Cmax for an agent had not been determined, the highest concentration tested was 10 microM.
NCI60 Cell Culture. NCI60 cell lines were obtained from the NCI Developmental Therapeutics Program Tumor Repository. For each lot of cells, the Repository performed Applied Biosystems AmpFLSTR Identifiler testing with PCR amplification to confirm consistency with the published Identifier STR profile for each cell line. Cells were kept in continuous culture for no more than 20 passages. The optimal seeding densities for each of the cell lines at each time point assessed were determined prior to performing the concentration response studies. Briefly, the NCI60 human tumor lines were grown as monolayers in RPMI 1640 medium supplemented with 10% FBS and 2 mmol/L L-glutamine.
An additional 9 lines were from the NCI60 cell line panel including MDA-MB-231 breast carcinoma, MDA-MB-468 breast carcinoma, MCF7 breast carcinoma, Hs578T breast carcinoma, MALME-3M melanoma, SK-MEL-2 melanoma, SK-OV-3 ovarian carcinoma, DU-145 prostate carcinoma, PC-3 prostate carcinoma, all cell lines along with major genetic alterations are listed on Table 2. Pooled donor human umbilical vein endothelial cells (HUVEC, Lonza, cat. CC-2519) and human mesenchymal stem cells (hMSC, Lonza, cat. PT-2501) were purchased from Lonza (Walkersville, MD).
PDMR cell lines were grown in complete medium (DC medium): Dulbecco's modified Eagle's medium (DMEM)/F12 supplemented with 5% fetal bovine serum (FBS), 2 mM L-glutamine, 100 U/mL penicillin and 100 µg/ml streptomycin, 0.4 µg/ml hydrocortisone, 10 ng/ml epidermal growth factor (EGF) recombinant human protein, 24 µg/mL adenine, and 0.1 mg/mL primocin. During culture from frozen stock vials, PDMR cells were cultured in the same medium containing 10 µM Y-27632 (see Table 3). The PDCs were cultured in complete DMEM/F12 media without 10 microM Y-27632 dihydrochloride for at least two passages prior to the screen. The pooled donor HUVEC and hMSC were cultured in endothelial cell growth medium 2 (PromoCell, Heidelberg, Germany, cat. C-22011) and mesenchymal stem cell growth medium 2 (PromoCell, cat. C-28009), respectively. For all experiments, HUVEC and hMSC were used at passages </=5.
[…]

[1] = second compound 0.1 µM, first compound 0.0316 µM
[2] = second compound 0.1 µM, first compound 0.1 µM
[3] = second compound 0.316 µM, first compound 0.0316 µM
[4] = second compound 0.316 µM, first compound 0.1 µM
[5] = second compound 1 µM, first compound 0.0316 µM
[6] = second compound 1 µM, first compound 0.1 µM
[7] = second compound 3.16 µM, first compound 0.0316 µM
[8] = second compound 3.16 µM, first compound 0.1 µM
[9] = second compound 10 µM, first compound 0.0316 µM
[10] = second compound 10 µM, first compound 0.1 µM
[11] = second compound 0.1 µM, first compound 0.316 µM
[12] = second compound 0.1 µM, first compound 1 µM
[13] = second compound 0.1 µM, first compound 3.16 µM
[14] = second compound 0.1 µM, first compound 10 µM
[15] = second compound 0.316 µM, first compound 0.316 µM
[16] = second compound 0.316 µM, first compound 1 µM
[17] = second compound 0.316 µM, first compound 3.16 µM
[18] = second compound 0.316 µM, first compound 10 µM
[19] = second compound 1 µM, first compound 0.316 µM
[20] = second compound 1 µM, first compound 1 µM
[21] = second compound 1 µM, first compound 3.16 µM
[22] = second compound 1 µM, first compound 10 µM
[23] = second compound 3.16 µM, first compound 0.316 µM
[24] = second compound 3.16 µM, first compound 1 µM
[25] = second compound 3.16 µM, first compound 3.16 µM
[26] = second compound 3.16 µM, first compound 10 µM
[27] = second compound 10 µM, first compound 0.316 µM
[28] = second compound 10 µM, first compound 1 µM
[29] = second compound 10 µM, first compound 3.16 µM
[30] = second compound 10 µM, first compound 10 µM
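Further: spheroids exposed to compounds for seven days.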
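Wherever viability, T/C is given: 100% = DMSO vehicle control viability.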

SMILES	IC50 (second compound 0.1 µM) [nM]	IC50 (second compound 0.316 µM) [nM]	IC50 (second compound 1 µM) [nM]	IC50 (second compound 3.16 µM) [nM]	IC50 (second compound 10 µM) [nM]	viability, T/C [1] [%]	viability, T/C [2] [%]	viability, T/C [3] [%]	viability, T/C [4] [%]	viability, T/C [5] [%]	viability, T/C [6] [%]	viability, T/C [7] [%]	viability, T/C [8] [%]	viability, T/C [9] [%]	viability, T/C [10] [%]	viability, T/C [11] [%]	viability, T/C [12] [%]	viability, T/C [13] [%]	viability, T/C [14] [%]	viability, T/C [15] [%]	other results
CC(C)n1nc(-c2ccc3oc(N)nc3c2)c2c(N)ncnc21 + CC(C)NCC(C(=O)N1CCN(c2ncnc3c2C(C)CC3O)CC1)c1ccc(Cl)cc1	22.4	7.57	1.97	0.362	< 0.316	43.8	31.9	37	26.8	27.5	22	19.6	17.5	14.4	12.3						viability, T/C (second compound 0.1 µM, first compound 0.000316 µM): 96.3%; viability, T/C (second compound 0.1 µM, first compound 0.001 µM): 89.2%; viability, T/C (second compound 0.1 µM, first compound 0.00316 µM): 70%; viability, T/C (second compound 0.1 µM, first compound 0.01 µM): 64.1%; viability, T/C (second compound 0.316 µM, first compound 0.000316 µM): 67.8%; viability, T/C (second compound 0.316 µM, first compound 0.001 µM): 66%; viability, T/C (second compound 0.316 µM, first compound 0.00316 µM): 61.8%; viability, T/C (second compound 0.316 µM, first compound 0.01 µM): 44.1%; viability, T/C (second compound 1 µM, first compound 0.000316 µM): 63.1%; viability, T/C (second compound 1 µM, first compound 0.001 µM): 54.1%; viability, T/C (second compound 1 µM, first compound 0.00316 µM): 47.5%; viability, T/C (second compound 1 µM, first compound 0.01 µM): 36.2%; viability, T/C (second compound 3.16 µM, first compound 0.000316 µM): 50%; viability, T/C (second compound 3.16 µM, first compound 0.001 µM): 47.3%; viability, T/C (second compound 3.16 µM, first compound 0.00316 µM): 36%; viability, T/C (second compound 3.16 µM, first compound 0.01 µM): 27.3%; viability, T/C (second compound 10 µM, first compound 0.000316 µM): 40.5%; viability, T/C (second compound 10 µM, first compound 0.001 µM): 35.9%; viability, T/C (second compound 10 µM, first compound 0.00316 µM): 31.6%; viability, T/C (second compound 10 µM, first compound 0.01 µM): 21.8%
CC1(C)CCC(CN2CCN(c3ccc(C(=O)NS(=O)(=O)c4ccc(NCC5CCOCC5)c([N+](=O)[O-])c4)c(Oc4cnc5[nH]ccc5c4)c3)CC2)=C(c2ccc(Cl)cc2)C1 + CC(C)NCC(C(=O)N1CCN(c2ncnc3c2C(C)CC3O)CC1)c1ccc(Cl)cc1	> 10000	> 10000	> 10000	< 31.6	< 31.6	83.6	73.6	73	69.8	65.2	63.5	51.2	50.7	43.7	41.7	78.5	75.1	74.5	76.6	67	viability, T/C [16]: 71.4%; viability, T/C [17]: 63.3%; viability, T/C [18]: 71.2%; viability, T/C [19]: 63.8%; viability, T/C [20]: 60.9%; viability, T/C [21]: 60.2%; viability, T/C [22]: 63.8%; viability, T/C [23]: 46.9%; viability, T/C [24]: 50.3%; viability, T/C [25]: 49.6%; viability, T/C [26]: 32.3%; viability, T/C [27]: 41.3%; viability, T/C [28]: 38.3%; viability, T/C [29]: 47.1%; viability, T/C [30]: 11%
CCCS(=O)(=O)Nc1ccc(F)c(C(=O)c2c[nH]c3ncc(-c4ccc(Cl)cc4)cc23)c1F + CC(C)NCC(C(=O)N1CCN(c2ncnc3c2C(C)CC3O)CC1)c1ccc(Cl)cc1	> 10000	> 10000	4180	< 31.6	< 31.6	87.4	86.3	73.2	77.2	67.3	61.2	47.2	48.5	41.8	47.8	88.9	89.7	102	68.2	66	viability, T/C [16]: 68%; viability, T/C [17]: 71.7%; viability, T/C [18]: 51.6%; viability, T/C [19]: 61.3%; viability, T/C [20]: 54.5%; viability, T/C [21]: 58%; viability, T/C [22]: 36%; viability, T/C [23]: 47.1%; viability, T/C [24]: 45%; viability, T/C [25]: 42.5%; viability, T/C [26]: 21.3%; viability, T/C [27]: 43.7%; viability, T/C [28]: 35.7%; viability, T/C [29]: 31.1%; viability, T/C [30]: 1.88%
